Measurements published in patent US9249129B2, “Morpholino substituted urea derivatives as mTOR inhibitors” (CELLZOME LIMITED, priority 2010, dated 2016).

Assays:
Assay in all cases: kinobeads assay with mass spectrometry detection of kinases (kinase selectivity profile)
Type in all cases: binding
kinases (kinome) [1] = target: T1, kinases (kinome) (Homo sapiens, UniProt P36897); conditions: TGFbR1 (TKL), IPI00005733
T1 construct: determined in kinobeads assays with mass spectrometry detection of kinases as described previously; endogenous in cells; host or cells: cell lysate
T1 sequence (P36897 34-503): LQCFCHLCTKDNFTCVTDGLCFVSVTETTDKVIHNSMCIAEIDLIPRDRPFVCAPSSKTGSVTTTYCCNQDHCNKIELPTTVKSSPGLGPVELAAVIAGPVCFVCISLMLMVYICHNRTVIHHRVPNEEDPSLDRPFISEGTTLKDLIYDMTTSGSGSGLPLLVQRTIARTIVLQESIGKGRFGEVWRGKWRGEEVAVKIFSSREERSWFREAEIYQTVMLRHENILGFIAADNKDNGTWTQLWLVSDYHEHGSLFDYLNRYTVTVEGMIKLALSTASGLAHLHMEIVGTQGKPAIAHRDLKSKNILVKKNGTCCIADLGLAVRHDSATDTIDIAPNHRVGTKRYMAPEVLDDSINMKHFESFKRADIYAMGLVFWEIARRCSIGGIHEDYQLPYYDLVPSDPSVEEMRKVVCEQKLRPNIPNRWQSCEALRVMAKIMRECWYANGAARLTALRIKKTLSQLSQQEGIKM
Description: (§1) The protein kinase complement of the human genome (the kinome) was described previously (Manning et al., 2002. Science 298(5600):1912-1934). Sequence accession numbers are defined by the International Protein Index (IPI) (Kersey et al., 2004. Proteomics 4(7):1985-1988).

kinases (kinome) [2] = target: T2, kinases (kinome) (Homo sapiens, UniProt P50750); conditions: CDK9 (CMGC), IPI00552413
T2 construct: determined in kinobeads assays with mass spectrometry detection of kinases as described previously; endogenous in cells; host or cells: cell lysate
T2 sequence (P50750 whole entry): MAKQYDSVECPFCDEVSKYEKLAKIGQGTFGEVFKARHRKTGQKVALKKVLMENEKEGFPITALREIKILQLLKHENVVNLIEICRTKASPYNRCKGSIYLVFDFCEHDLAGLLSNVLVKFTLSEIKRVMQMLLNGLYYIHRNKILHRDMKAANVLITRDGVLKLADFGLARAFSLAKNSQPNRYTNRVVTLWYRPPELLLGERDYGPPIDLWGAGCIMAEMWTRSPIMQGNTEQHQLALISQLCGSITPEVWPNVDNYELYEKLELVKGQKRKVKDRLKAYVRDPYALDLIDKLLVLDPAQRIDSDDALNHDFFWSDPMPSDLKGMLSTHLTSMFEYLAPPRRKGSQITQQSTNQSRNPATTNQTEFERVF
Description: as §1

kinases (kinome) [3] = target: T3, kinases (kinome) (Homo sapiens, UniProt P15056); conditions: BRAF (TKL), IPI00303797
T3 construct: determined in kinobeads assays with mass spectrometry detection of kinases as described previously; endogenous in cells; host or cells: cell lysate
T3 sequence (P15056 whole entry): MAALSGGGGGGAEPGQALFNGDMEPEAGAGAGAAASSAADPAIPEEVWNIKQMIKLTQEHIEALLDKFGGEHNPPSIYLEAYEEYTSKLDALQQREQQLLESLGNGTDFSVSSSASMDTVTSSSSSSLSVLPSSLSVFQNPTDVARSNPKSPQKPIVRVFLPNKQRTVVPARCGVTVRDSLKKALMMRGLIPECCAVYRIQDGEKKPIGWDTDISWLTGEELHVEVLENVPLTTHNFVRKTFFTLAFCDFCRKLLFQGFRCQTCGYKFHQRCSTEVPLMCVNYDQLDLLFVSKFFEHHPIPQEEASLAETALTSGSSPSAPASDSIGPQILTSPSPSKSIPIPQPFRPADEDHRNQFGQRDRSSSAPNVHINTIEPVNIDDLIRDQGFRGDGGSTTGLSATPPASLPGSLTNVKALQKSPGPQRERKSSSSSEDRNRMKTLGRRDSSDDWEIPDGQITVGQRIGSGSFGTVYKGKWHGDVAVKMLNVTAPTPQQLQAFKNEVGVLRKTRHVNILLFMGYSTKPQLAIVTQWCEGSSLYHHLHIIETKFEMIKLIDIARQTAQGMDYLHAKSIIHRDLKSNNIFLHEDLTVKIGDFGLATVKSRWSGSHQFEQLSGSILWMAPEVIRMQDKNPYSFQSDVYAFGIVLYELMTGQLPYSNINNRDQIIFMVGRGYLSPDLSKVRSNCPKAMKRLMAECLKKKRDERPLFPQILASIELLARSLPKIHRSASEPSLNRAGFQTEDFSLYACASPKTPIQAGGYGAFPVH
Description: as §1

kinases (kinome) [4] = target: T4, kinases (kinome) (Homo sapiens, UniProt P68400); conditions: CK2a1 (Other), IPI00016613
T4 construct: determined in kinobeads assays with mass spectrometry detection of kinases as described previously; endogenous in cells; host or cells: cell lysate
T4 sequence (P68400 whole entry): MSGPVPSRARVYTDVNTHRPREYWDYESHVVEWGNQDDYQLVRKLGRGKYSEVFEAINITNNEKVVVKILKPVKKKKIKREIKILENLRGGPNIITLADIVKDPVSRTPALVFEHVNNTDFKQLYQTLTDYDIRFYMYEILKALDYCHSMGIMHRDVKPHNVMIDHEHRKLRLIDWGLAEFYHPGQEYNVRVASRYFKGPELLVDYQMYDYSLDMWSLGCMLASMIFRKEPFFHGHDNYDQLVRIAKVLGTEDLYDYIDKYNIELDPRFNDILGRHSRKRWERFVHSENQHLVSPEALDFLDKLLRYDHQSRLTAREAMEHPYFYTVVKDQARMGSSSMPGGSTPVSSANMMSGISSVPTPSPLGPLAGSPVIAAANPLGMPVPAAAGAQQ
Description: as §1

kinases (kinome) [5] = target: T5, kinases (kinome) (Homo sapiens, UniProt Q9UHD2); conditions: TBK1 (Other), IPI00293613
T5 construct: determined in kinobeads assays with mass spectrometry detection of kinases as described previously; endogenous in cells; host or cells: cell lysate
T5 sequence (Q9UHD2 1-729): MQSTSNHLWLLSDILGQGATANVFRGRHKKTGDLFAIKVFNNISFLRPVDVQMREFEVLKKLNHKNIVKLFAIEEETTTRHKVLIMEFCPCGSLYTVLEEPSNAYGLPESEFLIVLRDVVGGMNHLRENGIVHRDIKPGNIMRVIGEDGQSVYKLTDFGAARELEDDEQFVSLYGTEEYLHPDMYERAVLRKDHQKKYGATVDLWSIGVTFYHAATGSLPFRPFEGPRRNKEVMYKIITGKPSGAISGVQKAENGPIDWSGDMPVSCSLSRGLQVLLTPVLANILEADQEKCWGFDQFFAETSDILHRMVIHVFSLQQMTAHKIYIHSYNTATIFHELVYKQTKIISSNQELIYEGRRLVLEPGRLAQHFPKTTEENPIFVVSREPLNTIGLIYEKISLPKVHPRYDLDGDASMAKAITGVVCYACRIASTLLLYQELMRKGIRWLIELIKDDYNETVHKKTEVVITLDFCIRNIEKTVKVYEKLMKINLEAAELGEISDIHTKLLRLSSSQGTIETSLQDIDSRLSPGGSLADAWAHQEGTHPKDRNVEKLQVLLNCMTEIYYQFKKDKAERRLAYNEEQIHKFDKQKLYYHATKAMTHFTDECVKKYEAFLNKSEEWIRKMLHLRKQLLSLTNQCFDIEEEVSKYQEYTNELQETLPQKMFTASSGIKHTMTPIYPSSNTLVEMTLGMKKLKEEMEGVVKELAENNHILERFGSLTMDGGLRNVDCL
Description: as §1

kinases (kinome) [6] = target: T6, kinases (kinome) (Homo sapiens, UniProt P41240); conditions: CSK (TK), IPI00013212
T6 construct: determined in kinobeads assays with mass spectrometry detection of kinases as described previously; endogenous in cells; host or cells: cell lysate
Description: as §1

kinases (kinome) [7] = target: T7, kinases (kinome) (Homo sapiens, UniProt Q9Y2K2); conditions: QSK (CAMK), IPI00657720
T7 construct: determined in kinobeads assays with mass spectrometry detection of kinases as described previously; endogenous in cells; host or cells: cell lysate
T7 sequence (Q9Y2K2 whole entry): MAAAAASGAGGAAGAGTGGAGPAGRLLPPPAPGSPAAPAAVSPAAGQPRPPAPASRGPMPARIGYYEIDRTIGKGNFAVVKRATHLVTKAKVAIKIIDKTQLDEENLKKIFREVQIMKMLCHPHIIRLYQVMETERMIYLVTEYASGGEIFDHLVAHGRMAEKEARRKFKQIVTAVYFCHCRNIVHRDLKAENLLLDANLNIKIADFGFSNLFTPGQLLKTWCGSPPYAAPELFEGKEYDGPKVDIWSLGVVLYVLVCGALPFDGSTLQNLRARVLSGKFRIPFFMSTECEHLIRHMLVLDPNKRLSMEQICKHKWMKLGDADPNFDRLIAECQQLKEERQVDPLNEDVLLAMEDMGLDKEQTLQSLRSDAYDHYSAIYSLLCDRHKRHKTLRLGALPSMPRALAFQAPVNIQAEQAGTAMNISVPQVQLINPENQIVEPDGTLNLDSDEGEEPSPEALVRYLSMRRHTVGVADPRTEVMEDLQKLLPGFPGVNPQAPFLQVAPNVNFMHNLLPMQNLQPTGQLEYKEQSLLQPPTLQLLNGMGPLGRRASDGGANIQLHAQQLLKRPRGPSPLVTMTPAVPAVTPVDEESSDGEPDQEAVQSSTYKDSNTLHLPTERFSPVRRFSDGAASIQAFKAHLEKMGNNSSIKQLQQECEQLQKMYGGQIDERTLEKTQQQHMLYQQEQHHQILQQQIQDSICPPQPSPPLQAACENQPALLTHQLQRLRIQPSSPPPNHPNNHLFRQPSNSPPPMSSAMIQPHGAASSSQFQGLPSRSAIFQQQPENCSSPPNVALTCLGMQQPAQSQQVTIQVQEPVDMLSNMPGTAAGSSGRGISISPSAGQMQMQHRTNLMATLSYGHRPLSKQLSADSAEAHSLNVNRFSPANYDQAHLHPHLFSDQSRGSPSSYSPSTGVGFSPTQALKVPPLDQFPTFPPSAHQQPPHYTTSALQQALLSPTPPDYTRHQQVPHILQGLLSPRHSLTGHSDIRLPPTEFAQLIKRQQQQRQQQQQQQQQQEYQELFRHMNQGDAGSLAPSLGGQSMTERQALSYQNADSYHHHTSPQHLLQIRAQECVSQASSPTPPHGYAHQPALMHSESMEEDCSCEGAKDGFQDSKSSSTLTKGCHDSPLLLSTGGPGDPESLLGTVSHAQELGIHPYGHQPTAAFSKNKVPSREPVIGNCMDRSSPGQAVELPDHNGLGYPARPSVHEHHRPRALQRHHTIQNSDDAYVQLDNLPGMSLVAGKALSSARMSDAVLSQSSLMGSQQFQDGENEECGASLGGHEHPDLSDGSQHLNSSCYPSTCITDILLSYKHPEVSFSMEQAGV
Description: as §1

kinases (kinome) [8] = target: T8, kinases (kinome) (Homo sapiens, UniProt Q99640); conditions: MYT1 (Other), IPI00909627
T8 construct: determined in kinobeads assays with mass spectrometry detection of kinases as described previously; endogenous in cells; host or cells: cell lysate
T8 sequence (Q99640 1-499): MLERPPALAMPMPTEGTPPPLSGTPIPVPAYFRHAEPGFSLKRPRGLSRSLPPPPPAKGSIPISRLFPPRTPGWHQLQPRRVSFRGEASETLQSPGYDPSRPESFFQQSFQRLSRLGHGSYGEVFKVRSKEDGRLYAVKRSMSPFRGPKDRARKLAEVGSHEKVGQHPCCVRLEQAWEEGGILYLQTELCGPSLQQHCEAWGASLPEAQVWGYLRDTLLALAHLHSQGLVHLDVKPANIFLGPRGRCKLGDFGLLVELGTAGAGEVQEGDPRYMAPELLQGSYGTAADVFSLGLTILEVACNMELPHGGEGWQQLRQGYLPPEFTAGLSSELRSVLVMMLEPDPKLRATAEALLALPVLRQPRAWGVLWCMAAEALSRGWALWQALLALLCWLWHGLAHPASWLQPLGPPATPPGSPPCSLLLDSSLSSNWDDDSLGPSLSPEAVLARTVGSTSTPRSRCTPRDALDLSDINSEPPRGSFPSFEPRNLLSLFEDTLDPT
Description: as §1

kinases (kinome) [9] = target: T9, kinases (kinome) (Homo sapiens, UniProt Q9Y6R4); conditions: MAP3K4 (STE), IPI00386260
T9 construct: determined in kinobeads assays with mass spectrometry detection of kinases as described previously; endogenous in cells; host or cells: cell lysate
T9 sequence (Q9Y6R4 whole entry): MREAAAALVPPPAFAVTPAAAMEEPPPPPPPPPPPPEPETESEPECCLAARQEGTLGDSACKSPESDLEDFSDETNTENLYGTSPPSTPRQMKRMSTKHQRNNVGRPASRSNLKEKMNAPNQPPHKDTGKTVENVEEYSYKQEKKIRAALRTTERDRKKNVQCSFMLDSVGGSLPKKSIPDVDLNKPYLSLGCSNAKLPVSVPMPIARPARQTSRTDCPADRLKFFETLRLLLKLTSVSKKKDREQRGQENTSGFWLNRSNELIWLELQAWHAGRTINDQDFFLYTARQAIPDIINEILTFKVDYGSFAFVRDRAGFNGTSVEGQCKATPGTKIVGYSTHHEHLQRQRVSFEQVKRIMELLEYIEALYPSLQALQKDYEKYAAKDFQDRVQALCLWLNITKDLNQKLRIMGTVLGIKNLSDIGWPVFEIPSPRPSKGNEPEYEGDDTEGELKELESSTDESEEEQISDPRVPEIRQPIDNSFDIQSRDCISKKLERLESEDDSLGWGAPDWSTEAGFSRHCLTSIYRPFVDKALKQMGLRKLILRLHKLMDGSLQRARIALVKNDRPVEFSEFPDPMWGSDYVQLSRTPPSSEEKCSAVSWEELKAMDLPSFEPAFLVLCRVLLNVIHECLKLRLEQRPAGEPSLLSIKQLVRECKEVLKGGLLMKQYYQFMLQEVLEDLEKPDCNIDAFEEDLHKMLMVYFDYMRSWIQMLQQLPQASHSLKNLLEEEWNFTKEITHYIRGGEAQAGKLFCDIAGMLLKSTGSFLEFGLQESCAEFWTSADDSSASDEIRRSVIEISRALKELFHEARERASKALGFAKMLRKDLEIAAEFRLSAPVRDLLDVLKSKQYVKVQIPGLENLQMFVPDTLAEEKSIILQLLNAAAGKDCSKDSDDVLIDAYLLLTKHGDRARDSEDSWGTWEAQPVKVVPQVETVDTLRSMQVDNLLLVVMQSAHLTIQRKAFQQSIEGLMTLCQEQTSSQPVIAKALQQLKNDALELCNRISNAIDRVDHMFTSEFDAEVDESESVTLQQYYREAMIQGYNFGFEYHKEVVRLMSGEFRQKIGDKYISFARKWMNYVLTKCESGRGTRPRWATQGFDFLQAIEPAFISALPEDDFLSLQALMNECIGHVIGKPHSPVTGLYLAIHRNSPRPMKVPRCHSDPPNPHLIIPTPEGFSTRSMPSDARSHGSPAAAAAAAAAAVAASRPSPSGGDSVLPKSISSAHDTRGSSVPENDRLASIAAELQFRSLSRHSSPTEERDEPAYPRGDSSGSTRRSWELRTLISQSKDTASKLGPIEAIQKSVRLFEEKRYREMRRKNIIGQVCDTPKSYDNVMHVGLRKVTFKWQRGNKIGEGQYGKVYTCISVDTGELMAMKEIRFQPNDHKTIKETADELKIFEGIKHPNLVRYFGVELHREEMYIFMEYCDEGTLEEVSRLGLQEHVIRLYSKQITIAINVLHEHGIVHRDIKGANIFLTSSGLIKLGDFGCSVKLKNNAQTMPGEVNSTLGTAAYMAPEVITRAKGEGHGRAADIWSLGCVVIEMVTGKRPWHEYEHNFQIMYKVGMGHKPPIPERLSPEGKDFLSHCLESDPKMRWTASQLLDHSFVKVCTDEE
Description: as §1

kinases (kinome) [10] = target: T10, kinases (kinome) (Homo sapiens, UniProt P27448); conditions: MARK3 (CAMK), IPI00183118
T10 construct: determined in kinobeads assays with mass spectrometry detection of kinases as described previously; endogenous in cells; host or cells: cell lysate
Description: as §1

| SMILES | IC50 (kinases (kinome) [1]) [µM] | IC50 (kinases (kinome) [2]) [µM] | IC50 (kinases (kinome) [3]) [µM] | IC50 (kinases (kinome) [4]) [µM] | IC50 (kinases (kinome) [5]) [µM] | IC50 (kinases (kinome) [6]) [µM] | IC50 (kinases (kinome) [7]) [µM] | IC50 (kinases (kinome) [8]) [µM] | IC50 (kinases (kinome) [9]) [µM] | IC50 (kinases (kinome) [10]) [µM] |
| --- | --- | --- | --- | --- | --- | --- | --- | --- | --- | --- |
| C[C@H]1COCCN1c1cc(-c2ccccc2S(C)(=O)=O)nc(-c2ccc(NC(=O)NC3CC3)cc2)n1 [Example 6, (S)-1-cyclopropyl-3-(4-(4-(3-methylmorpholino)-6-(2-(methylsulfonyl)phenyl)pyrimidin-2-yl)phenyl)urea] | > 10 | > 10 | > 10 | > 10 | > 10 | > 10 | > 10 | > 10 | > 10 | > 10 |
| CCNC(=O)Nc1ccc(-c2cc(-c3ccccc3C#N)nc(N3CCOC[C@@H]3C)n2)cc1 [Example 8, (S)-1-(4-(6-(2-cyanophenyl)-2-(3-methylmorpholino)pyrimidin-4-yl)phenyl)-3-ethylurea] | > 10 | > 10 | > 10 | > 10 | > 10 | > 10 | > 10 | > 10 | > 10 | > 10 |
| C[C@H]1COCCN1c1nc(-c2ccc(NC(=O)NC3CC3)cc2)cc(-c2ccccc2S(C)(=O)=O)n1 [Example 4, (S)-1-cyclopropyl-3-(4-(2-(3-methylmorpholino)-6-(2-(methylsulfonyl)phenyl)pyrimidin-4-yl)phenyl)urea] | > 10 | > 10 | > 10 | > 10 | > 10 | > 10 | > 10 | > 10 | > 10 | > 10 |
| C[C@H]1COCCN1c1nc(-c2ccc(NC(=O)NC3CC3)cc2)cc(-c2cc(F)ccc2S(C)(=O)=O)n1 [Example 40, (S)-1-cyclopropyl-3-(4-(6-(5-fluoro-2-(methylsulfonyl)phenyl)-2-(3-methylmorpholino)pyrimidin-4-yl)phenyl)urea] | > 10 | > 10 | > 10 | > 10 | > 10 | > 10 | > 10 | > 10 | > 10 | > 10 |

Next, values leading:

| IC50 (kinases (kinome) [1]) [µM] | IC50 (kinases (kinome) [2]) [µM] | IC50 (kinases (kinome) [3]) [µM] | IC50 (kinases (kinome) [4]) [µM] | IC50 (kinases (kinome) [5]) [µM] | IC50 (kinases (kinome) [6]) [µM] | IC50 (kinases (kinome) [7]) [µM] | IC50 (kinases (kinome) [8]) [µM] | IC50 (kinases (kinome) [9]) [µM] | IC50 (kinases (kinome) [10]) [µM] | SMILES |
| --- | --- | --- | --- | --- | --- | --- | --- | --- | --- | --- |
| > 10 | > 10 | > 10 | > 10 | > 10 | > 10 | > 10 | > 10 | > 10 | > 10 | C[C@H]1COCCN1c1nc(-c2ccc(NC(=O)NC3CC3)cc2)cc(-c2cccnc2S(C)(=O)=O)n1 [Example 46, (S)-1-cyclopropyl-3-(4-(2-(3-methylmorpholino)-6-(2-(methylsulfonyl)pyridin-3-yl)pyrimidin-4-yl)phenyl)urea] |
| > 10 | > 10 | > 10 | > 10 | > 10 | > 10 | > 10 | > 10 | > 10 | > 10 | C[C@H]1COCCN1c1nc(-c2ccc(NC(=O)N[C@H]3CCC[C@@H]3O)cc2)cc(-c2cc(F)ccc2S(C)(=O)=O)n1 [Example 76, 1-(4-(6-(5-fluoro-2-(methylsulfonyl)phenyl)-2-((S)-3-methylmorpholino)pyrimidin-4-yl)phenyl)-3-((1S,2S)-2-hydroxycyclopentyl)urea] |
| > 10 | > 10 | > 10 | > 10 | > 10 | > 10 | > 10 | > 10 | > 10 | > 10 | C[C@H]1COCCN1c1cc(-c2ccccn2)nc(-c2ccc(NC(=O)NCCO)cc2)n1 [Example 43, (S)-1-(2-hydroxyethyl)-3-(4-(4-(3-methylmorpholino)-6-(pyridin-2-yl)pyrimidin-2-yl)phenyl)urea] |
